Counter-ions that a name gives are not always drawn.

One experiment has as its target EGFR WT (Homo sapiens (Human), UniProt P00533). The experiment is described as follows: ErbB enzyme assay (CisBio HTRF-KinEASE-TK), EGFR WT. The format is biochemical. To be noted: ATP at Km (25 μM), 1 h incubation. An outline of the steps: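 Tyrosine kinase HTRF, 1 h RT reaction → quench (Sa-XL665/TK-Ab-Cryptate) → 1 h RT → 655/620 ratio.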
A general note: TR-FRET usually uses a lanthanide donor and a delayed reading to cut background.

The target in another experiment is ErbB2 V777L (Homo sapiens (Human), UniProt P04626, V777L). Put plainly: ErbB enzyme assay (CisBio HTRF-KinEASE-TK), ErbB2 V777L. The format is biochemical. An outline of the steps: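 HTRF KinEASE-TK tyrosine-kinase read-out of substrate phosphorylation after a final 1 h at ambient temperature, from the 655/620 nm emission ratio.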
ErbB2 V777L, sequence (P04626 23-1255 V777L): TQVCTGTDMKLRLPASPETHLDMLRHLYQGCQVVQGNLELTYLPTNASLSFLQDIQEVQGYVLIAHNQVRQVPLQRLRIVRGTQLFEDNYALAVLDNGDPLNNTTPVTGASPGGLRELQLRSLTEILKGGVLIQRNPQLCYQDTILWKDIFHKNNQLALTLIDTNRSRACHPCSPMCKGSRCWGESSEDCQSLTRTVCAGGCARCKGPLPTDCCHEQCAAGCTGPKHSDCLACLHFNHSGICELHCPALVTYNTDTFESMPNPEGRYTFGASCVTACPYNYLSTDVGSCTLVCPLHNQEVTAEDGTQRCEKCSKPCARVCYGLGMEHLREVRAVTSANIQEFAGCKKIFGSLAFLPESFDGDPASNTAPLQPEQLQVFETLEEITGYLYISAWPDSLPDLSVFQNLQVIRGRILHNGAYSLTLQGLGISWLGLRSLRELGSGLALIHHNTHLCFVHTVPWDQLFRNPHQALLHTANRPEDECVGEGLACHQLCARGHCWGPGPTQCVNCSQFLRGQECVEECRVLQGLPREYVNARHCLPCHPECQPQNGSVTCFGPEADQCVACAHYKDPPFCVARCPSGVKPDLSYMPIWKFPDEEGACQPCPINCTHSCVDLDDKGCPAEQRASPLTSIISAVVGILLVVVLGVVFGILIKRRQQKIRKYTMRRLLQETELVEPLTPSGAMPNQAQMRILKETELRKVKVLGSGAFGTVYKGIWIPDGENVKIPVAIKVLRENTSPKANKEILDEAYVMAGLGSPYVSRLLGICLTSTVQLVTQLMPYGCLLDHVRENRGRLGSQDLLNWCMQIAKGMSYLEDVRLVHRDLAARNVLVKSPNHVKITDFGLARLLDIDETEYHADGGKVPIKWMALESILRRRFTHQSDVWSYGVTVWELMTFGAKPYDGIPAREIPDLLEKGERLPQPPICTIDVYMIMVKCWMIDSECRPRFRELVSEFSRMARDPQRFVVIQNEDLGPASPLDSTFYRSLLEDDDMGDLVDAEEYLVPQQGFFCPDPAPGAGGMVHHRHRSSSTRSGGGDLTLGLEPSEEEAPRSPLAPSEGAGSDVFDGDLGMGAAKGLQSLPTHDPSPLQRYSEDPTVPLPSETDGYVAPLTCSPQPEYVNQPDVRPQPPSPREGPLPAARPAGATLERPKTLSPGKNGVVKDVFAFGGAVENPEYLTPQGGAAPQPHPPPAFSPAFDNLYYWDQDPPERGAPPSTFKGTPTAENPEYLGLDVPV

EGFR WT, sequence (P00533 25-1210): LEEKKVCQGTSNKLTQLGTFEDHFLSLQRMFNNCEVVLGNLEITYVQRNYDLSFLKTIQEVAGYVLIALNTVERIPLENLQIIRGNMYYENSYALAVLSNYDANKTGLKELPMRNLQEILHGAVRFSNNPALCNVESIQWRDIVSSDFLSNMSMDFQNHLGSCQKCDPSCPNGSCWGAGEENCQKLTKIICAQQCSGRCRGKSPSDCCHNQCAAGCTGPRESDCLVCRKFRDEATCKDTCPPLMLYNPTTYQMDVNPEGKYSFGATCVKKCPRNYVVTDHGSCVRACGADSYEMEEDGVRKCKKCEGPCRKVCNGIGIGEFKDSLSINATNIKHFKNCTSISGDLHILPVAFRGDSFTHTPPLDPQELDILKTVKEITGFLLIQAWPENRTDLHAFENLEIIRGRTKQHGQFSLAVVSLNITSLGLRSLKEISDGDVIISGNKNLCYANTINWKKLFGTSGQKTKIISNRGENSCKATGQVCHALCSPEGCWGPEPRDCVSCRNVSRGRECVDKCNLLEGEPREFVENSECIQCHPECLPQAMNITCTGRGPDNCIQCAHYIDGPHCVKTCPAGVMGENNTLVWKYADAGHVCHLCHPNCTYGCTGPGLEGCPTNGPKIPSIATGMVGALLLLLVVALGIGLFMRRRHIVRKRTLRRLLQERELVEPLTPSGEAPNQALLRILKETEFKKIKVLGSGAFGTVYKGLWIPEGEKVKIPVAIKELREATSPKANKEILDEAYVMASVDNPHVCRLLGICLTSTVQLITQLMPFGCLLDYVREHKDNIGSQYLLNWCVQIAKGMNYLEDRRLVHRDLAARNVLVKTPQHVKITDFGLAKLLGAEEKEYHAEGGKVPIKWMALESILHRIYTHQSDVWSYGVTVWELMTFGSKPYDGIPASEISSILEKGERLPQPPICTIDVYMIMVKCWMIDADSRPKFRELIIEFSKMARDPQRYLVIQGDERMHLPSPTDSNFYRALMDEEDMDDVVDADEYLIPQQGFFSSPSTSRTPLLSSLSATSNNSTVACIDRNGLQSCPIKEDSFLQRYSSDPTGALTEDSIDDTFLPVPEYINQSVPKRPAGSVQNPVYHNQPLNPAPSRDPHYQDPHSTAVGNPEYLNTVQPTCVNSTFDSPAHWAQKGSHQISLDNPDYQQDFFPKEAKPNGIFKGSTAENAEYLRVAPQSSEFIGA

The term IC50 denotes the concentration needed to halve the response being measured. A lower IC50 goes with greater potency in that assay. Consider `C=CC(=O)N1CCC(c2ccc3ncnc(Nc4ccc(Oc5ccc6c(c5)nnn6C)c(C)c4)c3n2)CC1` [Compound 108, 1-(4-(4-((3-methyl-4-((1-methyl-1H-benzo[d][1,2,3]triazol-5-yl)oxy)phenyl)amino)pyrido[3,2-d]pyrimidin-6-yl)piperidin-1-yl)prop-2-en-1-one], for which the IC50 at EGFR WT and against ErbB2 V777L was 100 to 500 nM throughout.

With `C=CC(=O)N1CCN(c2ccc3ncnc(Nc4cc(F)c(Oc5ccc6c(c5)nnn6C)c(C)c4F)c3n2)CC1(C)C` [Compound 327, 1-(4-(4-((2,5-difluoro-3-methyl-4-((1-methyl-1H-benzo[d][1,2,3]triazol-5-yl)oxy)phenyl)amino)pyrido[3,2-d]pyrimidin-6-yl)-2,2-dimethylpiperazin-1-yl)prop-2-en-1-one], the IC50 on EGFR WT and at ErbB2 V777L was 100 to 500 nM in each case.

In the case of `C=CC(=O)N1CCC[C@H](N(C)c2ncc3ncnc(Nc4ccc(Oc5ccc6c(c5)nnn6C)c(C)c4)c3n2)C1` [Compound 224, (S)-1-(3-(methyl(8-((3-methyl-4-((1-methyl-1H-benzo[d][1,2,3]triazol-5-yl)oxy)phenyl)amino)pyrimido[5,4-d]pyrimidin-2-yl)amino)piperidin-1-yl)prop-2-en-1-one], the half-maximal inhibitory concentration (IC50) against EGFR WT lay in the range of 100 to 500 nM; against ErbB2 V777L, 50 to 100 nM.

`C=CC(=O)N1CCN(c2ncc3ncnc(Nc4ccc(Oc5ccc6c(c5)nnn6C)c(C)c4)c3n2)CC[C@H]1C` [Compound 152, (R)-1-(7-methyl-4-(8-((3-methyl-4-((1-methyl-1H-benzo[d][1,2,3]triazol-5-yl)oxy)phenyl)amino)pyrimido[5,4-d]pyrimidin-2-y1)-1,4-diazepan-1-yl)prop-2-en-1-one]: the 50% inhibitory concentration (IC50) is not below 1000 nM against EGFR WT and 500 to 1000 nM on ErbB2 V777L.

In the case of `C=CC(=O)N1CC[C@@H]2CN(c3ncc4ncnc(Nc5ccc(Oc6ccc7c(c6)nnn7C)c(C)c5)c4n3)C[C@@H]21` [Compound 150, 1-((3aR,6aR)-5-(8-((3-methyl-4-((1-methyl-1H-benzo[d][1,2,3]triazol-5-yl)oxy)phenyl)amino)pyrimido[5,4-d]pyrimidin-2-yl)hexahydropyrrolo[3,4-b]pyrrol-1(2H)-yl)prop-2-en-1-one], the IC50 fell in the range of 500 to 1000 nM at EGFR WT and 100 to 500 nM against ErbB2 V777L.

Regarding `C=CC(=O)NC1CC2(C1)CN(c1ncc3ncnc(Nc4ccc(Oc5ccc6c(c5)nnn6C)c(C)c4)c3n1)C2` [Compound 225, N-(2-(8-((3-methyl-4-((1-methyl-1H-benzo[d][1,2,3]triazol-5-yl)oxy)phenyl)amino)pyrimido[5,4-d]pyrimidin-2-yl)-2-azaspiro[3.3]heptan-6-yl)acrylamide], the IC50 on EGFR WT was in the range of 500 to 1000 nM; against ErbB2 V777L, 100 to 500 nM.

For `C=CC(=O)N[C@@H]1CCCCN(c2ncc3ncnc(Nc4ccc(Oc5ccc6c(c5)nnn6C)c(C)c4F)c3n2)C1` [Compound 170, (R)-N-(1-(8-((2-fluoro-3-methyl-4-((1-methyl-1H-benzo[d][1,2,3]triazol-5-yl)oxy)phenyl)amino)pyrimido[5,4-d]pyrimidin-2-yl)azepan-3-yl)acrylamide], the concentration for half-maximal inhibition (IC50) against EGFR WT and against ErbB2 V777L was 100 to 500 nM in each case.

On to `C=CC(=O)N1[C@@H]2CC[C@H]1C[C@@H](Oc1ncc3ncnc(Nc4ccc(Oc5ccc6c(c5)ncn6C)c(C)c4)c3n1)C2` [Compound 391, 1-((1R,3r,5S)-3-((8-((3-methyl-4-((1-methyl-1H-benzo[d]imidazol-5-yl)oxy)phenyl)amino)pyrimido[5,4-d]pyrimidin-2-yl)oxy)-8-azabicyclo[3.2.1]octan-8-yl)prop-2-en-1-one], for which the IC50 against EGFR WT and on ErbB2 V777L was 500 to 1000 nM in each case.

With `C=CC(=O)N1CCCN(c2ccc3ncnc(Nc4cc(C)c(Oc5ccc6c(c5)nnn6C)cc4OC)c3n2)CC1` [Compound 264, 1-(4-(4-((2-methoxy-5-methyl-4-((1-methyl-1H-benzo[d][1,2,3]triazol-5-yl)oxy)phenyl)amino)pyrido[3,2-d]pyrimidin-6-yl)-1,4-diazepan-1-yl)prop-2-en-1-one], the concentration for half-maximal inhibition (IC50) at EGFR WT and against ErbB2 V777L was 500 to 1000 nM in each case.

As for `C=C(F)C(=O)N1CCN(c2ncc3ncnc(Nc4ccc(Oc5ccc6c(c5)nnn6C)c(C)c4)c3n2)C[C@@H]1C(F)(F)F` [Compound 231, (R)-2-fluoro-1l-(4-(8-((3-methyl-4-((1-methyl-1H-benzo[d][1,2,3]triazol-5-yl)oxy)phenyl)amino)pyrimido[5,4-d]pyrimidin-2-yl)-2-(trifluoromethyl)piperazin-1-yl)prop-2-en-1-one], the IC50 against EGFR WT and against ErbB2 V777L was 500 to 1000 nM in each case.

With `C=CC(=O)N1CCN(c2ncc3ncnc(Nc4cc(C)c(Oc5ccc6c(c5)nnn6C)cc4OC)c3n2)CC1` [Compound 12, 1-(4-(8-((2-methoxy-5-methyl-4-((1-methyl-1H-benzo[d][1,2,3]triazol-5-yl)oxy)phenyl)amino)pyrimido[5,4-d]pyrimidin-2-yl)piperazin-1-yl)prop-2-en-1-one 2,2,2-trifluoroacetate], the IC50 at EGFR WT and against ErbB2 V777L was 100 to 500 nM in each case.

`C=CC(=O)N[C@@H]1CCCN(c2ccc3ncnc(Nc4cc(C)c(Oc5ccc6c(c5)nnn6C)cc4OC)c3n2)C1` [Compound 274, (R)-N-(1-(4-((2-methoxy-5-methyl-4-((1-methyl-1H-benzo[d][1,2,3]triazol-5-yl)oxy)phenyl)amino)pyrido[3,2-d]pyrimidin-6-yl)piperidin-3-yl)acrylamide]: the concentration for half-maximal inhibition (IC50) at EGFR WT was not below 1000 nM; at ErbB2 V777L it was 500 to 1000 nM.

`C=CC(=O)N1CC(F)(F)C12CN(c1ncc3ncnc(Nc4ccc(Oc5ccc6c(c5)nnn6C)c(C)c4)c3n1)C2` [Compound 221, 1-(3,3-difluoro-6-(8-((3-methyl-4-((1-methyl-1H-benzo[d][1,2,3]triazol-5-yl)oxy)phenyl)amino)pyrimido[5,4-d]pyrimidin-2-yl)-1,6-diazaspiro[3.3]heptan-1-yl)prop-2-en-1-one]: the IC50 against EGFR WT is less than 50 nM; against ErbB2 V777L it was 50 to 100 nM.

Consider `C=CC(=O)N1CCN(c2ncc3ncnc(Nc4ccc(Oc5ccc6c(c5)nnn6C)c(OC)c4F)c3n2)CC1` [Compound 45, 1-(4-(8-((2-fluoro-3-methoxy-4-((1-methyl-1H-benzo[d][1,2,3]triazol-5-yl)oxy)phenyl)amino)pyrimido [5,4-d]pyrimidin-2-yl)piperazin-1-yl)prop-2-en-1-one], for which the IC50 against EGFR WT and against ErbB2 V777L was 100 to 500 nM throughout.

With `C=CC(=O)N(C)[C@H]1C[C@H](Oc2ncc3ncnc(Nc4ccc(Oc5ccc6c(c5)ncn6C)c(C)c4)c3n2)C1` [Compound 382, N-methyl-N-((1r,3r)-3-((8-((3-methyl-4-((1-methyl-1H-benzo[d]imidazol-5-yl)oxy)phenyl)amino)pyrimido[5,4-d]pyrimidin-2-yl)oxy)cyclobutyl)acrylamide], the IC50 against EGFR WT was not below 1000 nM; against ErbB2 V777L, 50 to 100 nM.

As to `C=CC(=O)N1CCN(c2ncc3ncnc(Nc4ccc(Oc5cc6nnn(C)c6c(F)c5C)c(C)c4F)c3n2)C[C@H]1C` [Compound 176, (R)-1-(4-(8-((2-fluoro-4-((7-fluoro-1,6-dimethyl-1H-benzo[d][1,2,3]triazol-5-yl)oxy)-3-methylphenyl)amino)pyrimido[5,4-d]pyrimidin-2-yl)-2-methylpiperazin-1-yl)prop-2-en-1-one], the concentration for half-maximal inhibition (IC50) against EGFR WT was in the range of 100 to 500 nM; at ErbB2 V777L it was 500 to 1000 nM.

As to `C=CC(=O)N1CCN(c2ncc3ncnc(Nc4ccc(Oc5cc6nnn(C)c6cn5)c(C)c4)c3n2)CC1` [Compound 132, 1-(4-(8-((3-methyl-4-((3-methyl-3H-[1,2,3]triazolo[4,5-c]pyridin-6-yl)oxy)phenyl)amino)pyrimido[5,4-d]pyrimidin-2-yl)piperazin-1-yl)prop-2-en-1-one], the IC50 against EGFR WT and on ErbB2 V777L was 100 to 500 nM each time.

Regarding `C=CC(=O)NC1CCN(c2ccc3ncnc(Nc4ccc(Oc5ccc6c(c5)nnn6C)c(C)c4F)c3n2)CC1` [Compound 272, N-(1-(4-((2-fluoro-3-methyl-4-((1-methyl-1H-benzo[d][1,2,3]triazol-5-yl)oxy)phenyl)amino)pyrido[3,2-d]pyrimidin-6-yl)piperidin-4-yl)acrylamide], the half-inhibitory concentration (IC50) against EGFR WT and at ErbB2 V777L was 100 to 500 nM throughout.

For `C=CC(=O)N(C)C1C2CN(c3ncc4ncnc(Nc5ccc(Oc6ccc7c(c6)nnn7C)c(C)c5F)c4n3)CC21` (centres unmarked) [Compound 226, N-(3-(8-((2-fluoro-3-methyl-4-((1-methyl-1H-benzo[d][1,2,3]triazol-5-yl)oxy)phenyl)amino)pyrimido[5,4-d]pyrimidin-2-yl)-3-azabicyclo[3.1.0]hexan-6-yl)-N-methylacrylamide], the IC50 on EGFR WT and on ErbB2 V777L was 100 to 500 nM in each case.

In the case of `C=C1CCN([C@H]2CCN(c3ncc4ncnc(Nc5ccc(Oc6ccn7ncnc7c6)c(C)c5)c4n3)C2)C1=O` [Compound 239, (S)-1′-(8-((4-([1,2,4]triazolo[1,5-a]pyridin-7-yloxy)-3-methylphenyl)amino)pyrimido[5,4-d]pyrimidin-2-yl)-3-methylene-[1,3′-bipyrrolidin]-2-one], the 50% inhibitory concentration (IC50) at EGFR WT lay in the range of 500 to 1000 nM; against ErbB2 V777L it was 50 to 100 nM.

Consider `C=C(F)C(=O)N1CC(F)(F)C12CN(c1ncc3ncnc(Nc4ccc(Oc5ccc6c(c5)nnn6C)c(C)c4)c3n1)C2` [Compound 209, 1-(3,3-difluoro-6-(8-((3-methyl-4-((1-methyl-1H-benzo[d][1,2,3]triazol-5-yl)oxy)phenyl)amino)pyrimido [5,4-d]pyrimidin-2-yl)-1,6-diazaspiro[3.3]heptan-1-yl)-2-fluoroprop-2-en-1-one], for which the concentration for half-maximal inhibition (IC50) against EGFR WT and against ErbB2 V777L was 50 to 100 nM in each case.

With `C=CC(=O)N1C2C=C(c3ccc4ncnc(Nc5ccc(Oc6ccc7c(c6)nnn7C)c(C)c5)c4n3)CC1CC2` (centres unmarked) [Compound 409, 1-(3-(4-((3-methyl-4-((1-methyl-1H-benzo[d][1,2,3]triazol-5-yl)oxy)phenyl)amino)pyrido[3,2-d]pyrimidin-6-yl)-8-azabicyclo[3.2.1]oct-2-en-8-yl)prop-2-en-1-one trifluoroacetate], the results for the IC50 against EGFR WT and against ErbB2 V777L were 100 to 500 nM and 50 to 100 nM, respectively.

These data come from patent US20250129078A1, “ERBB2 INHIBITORS” (Cogent Biosciences, Inc., priority 2023, published 2025).
